ChEMBL document CHEMBL3046739, “Effects of imidacloprid on transmission of tomato spotted wilt tospovirus to pepper, tomato and tobacco by Frankliniella fusca Hinds (Thysanoptera: Thripidae)” (2001)
The source made the active and inactive calls. The rule behind the calls is not given here.

Tests used:
Frankliniella fusca [1] = test: Insecticidal activity against Frankliniella fusca assessed as effect on probing/feeding bout on mustard plants at 7.1 g a.i./1000 plants measured as duration of potential drops by electronic penetration graph analysis (reference value: 1.28 +/- 0.15 min); assay type: functional
Frankliniella fusca [2] = test: (§1) Insecticidal activity against Frankliniella fusca assessed as reduction in tomato spotted wilt tospovirus transmission in compound pretreated pepper plant at 9.9 g a.i./1000 plants 60 days prior to 48 hr insect-infestation followed by foliar application at 7.1 g a.i./1000 plants measured after 21 days in green house conditions; assay type: functional; design: scale not given: the % may be the effect or the level left
Frankliniella fusca [3] = test: Insecticidal activity against Frankliniella fusca assessed as effect on probing/feeding bout on pepper plants at 7.1 g a.i./1000 plants measured as number of potential drops by electronic penetration graph analysis (reference value: 0.03 +/- 0.01 /hr); assay type: functional
Frankliniella fusca [4] = test: Insecticidal activity against Frankliniella fusca assessed as effect on probing/feeding bout on mustard plants at 14.4 g a.i./1000 plants measured as number of potential drops by electronic penetration graph analysis (reference value: 0.2 +/- 0.09 /hr); assay type: functional
Frankliniella fusca [5] = test: Insecticidal activity against Frankliniella fusca assessed as effect on probing/feeding bout on mustard plants at 14.4 g a.i./1000 plants measured as duration of potential drops by electronic penetration graph analysis (reference value: 0.06 +/- 0.03 min); assay type: functional
Frankliniella fusca [6] = test: Insecticidal activity against Frankliniella fusca assessed as effect on probing/feeding bout on pepper plants at 14.4 g a.i./1000 plants measured as number of potential drops by electronic penetration graph analysis (reference value: 0.28 +/- 0.03 /hr); assay type: functional
Frankliniella fusca [7] = test: Insecticidal activity against Frankliniella fusca assessed as effect on probing/feeding bout on pepper plants at 7.1 g a.i./1000 plants measured as duration of potential drops by electronic penetration graph analysis (reference value: 0.01 +/- 0.01 min); assay type: functional
Frankliniella fusca [8] = test: Insecticidal activity against Frankliniella fusca assessed as reduction in number of thrips isolated per compound pre-treated tobacco plant infected with tomato spotted wilt tospovirus at 9.9 g a.i./1000 plants in green house conditions relative to control; assay type: functional, organism-based
Frankliniella fusca [9] = test: Insecticidal activity against Frankliniella fusca assessed as effect on probing/feeding bout on mustard plants at 7.1 g a.i./1000 plants measured as number of potential drops by electronic penetration graph analysis (reference value: 0.7 +/- 0.11 /hr); assay type: functional
Frankliniella fusca [10] = test: as §1, with “pre-treated tomato” for “pretreated pepper”; assay type: functional; design: scale not given: the % may be the effect or the level left
Frankliniella fusca [11] = test: Insecticidal activity against Frankliniella fusca immature thrips isolated from infected tobacco plants assessed reduction in tomato spotted wilt tospovirus transmission on petunia leaf by DAS-ELISA; assay type: functional; design: scale not given: the % may be the effect or the level left
Frankliniella fusca [12] = test: as §1, with “tomato” for “pepper”, “11.3” for “9.9”, “8” for “60”, “field” for “green house”; assay type: functional; design: scale not given: the % may be the effect or the level left
Frankliniella fusca [13] = test: as §1, with “pre-treated” for “pretreated”, “11.3” for “9.9”, “8” for “60”, “field” for “green house”; assay type: functional; design: scale not given: the % may be the effect or the level left
Frankliniella fusca [14] = test: Insecticidal activity against Frankliniella fusca assessed as effect on probing/feeding bout on pepper plants at 14.4 g a.i./1000 plants measured as duration of potential drops by electronic penetration graph analysis (reference value: 0.04 +/- 0.02 min); assay type: functional
Frankliniella fusca [15] = test: as §1, with “as” for “as reduction in”, “pre-treated tobacco” for “pretreated pepper”, “conditions (reference value: 82.5 +/- 0.05%)” for “conditions”; assay type: functional

O=[N+]([O-])/N=C1\NCCN1Cc1ccc(Cl)nc1 [IMIDACLOPRID]
Time (Frankliniella fusca [1]): 1.41 min | Activity (Frankliniella fusca [2]): 74% | Activity (Frankliniella fusca [3]): 1.53 h⁻¹ | Activity (Frankliniella fusca [4]): 1.53 h⁻¹ | Time (Frankliniella fusca [5]): 0.79 min | Activity (Frankliniella fusca [6]): 1.84 h⁻¹ | Time (Frankliniella fusca [7]): 0.39 min | Activity (Frankliniella fusca [8]): Active | Activity (Frankliniella fusca [9]): 2.12 h⁻¹ | Activity (Frankliniella fusca [10]): 82% | Activity (Frankliniella fusca [11]): 6.4% | Activity (Frankliniella fusca [12]): 87% | Activity (Frankliniella fusca [13]): 73% | Time (Frankliniella fusca [14]): 0.52 min | Activity (Frankliniella fusca [15]): 11.1%
